# Measurements reported in patent US20260174766A1, “COMBINATION OF MENIN INHIBITOR(S) AND IMMUNOPROTEASOME INHIBITOR(S) FOR TREATMENT OF LEUKEMIA” (Medizinische Hochschule Hannover, priority 2022, published 2026).
# Tested on: MOLM-13 and ML-2 cells
# Assay: Global transcriptome analysis by RNA-sequencing
# Format: cell-based, human
# Conditions: 100 nM PR-957, 72 hours, FIG. 3A
# Text: Cells were harvested and resuspended in TRIzol™, and RNA was extracted using the TRIzol-Chloroform method (Heidel et al., 2013). RNA-seq libraries were generated using SMART-Seq v4 Ultra Low Input RNA Kit (Takara Bio USA Inc., Mountain View, CA, USA) followed by Nextera XT (Illumina, San Diego, CA, USA).
# For analysis, 50 bp single-end reads (Illumina) were aligned to reference genome mm10 and gtf.-transcriptome annotation release M7 (GENCODE) using STAR two-pass mode (Dobin et al., 2013).
# GENCODE M7 gtf.-file was used for quantification, performed by STAR, followed by normalization, transformation and differential gene expression analysis in DEseq2 (Love et al., 2014). GSEA was carried out on a public server “Gene Pattern” of Broad Institute (Reich et al., 2006). For analysis of the genetic CRISPRCas9 screen, next generation sequencing was performed on an Illumina NextSeq platform (75 bp, single reads) aiming for a minimum of 30Mio reads per sample.
# Therefore, it was sought to determine to which extent the inhibition of PSMB8/LMP7 also contributes to the transcriptional regulation of human MLL-target genes. […] This cell line was selected for its sensitivity to PR-957 (FIG. 3D) and ability to be transduced among the MLLr cell lines evaluated above. […]
smiles,measurement,value
"COc1ccc(C[C@H](NC(=O)[C@H](C)NC(=O)CN2CCOCC2)C(=O)N[C@@H](Cc2ccccc2)C(=O)[C@]2(C)CO2)cc1 [PR-957, (2S)-3-(4-methoxyphenyl)-N-[(2S)-1-[(2S)-2-methyloxiran-2-yl]-1-oxo-3-phenylpropan-2-yl]-2-[[(2S)-2-[(2-morpholin-4-ylacetyl)amino]propanoyl]amino]propanamide]",genes regulated in both cell lines upon treatment (overlap),457 genes
